Measured values as given in patent US20230040770A1, “HETEROCYCLIC COMPOUND AND USE THEREOF” (TAKEDA PHARMACEUTICAL COMPANY LIMITED, priority 2019, published 2023).

These molecules were tested against T1, human orexin type 2 receptor (Homo sapiens, UniProt O43614) (assay: Measurement of orexin type 2 receptor agonist activity (calcium indicator fluorescence, CHO cells forcibly expressing human OX2 receptor)). Conditions: compound at 3 μM; 0% = DMSO, 100% = orexin A (human) 10 nM.
T1 construct: expressed in transfected cells
T1 sequence (O43614 1-444): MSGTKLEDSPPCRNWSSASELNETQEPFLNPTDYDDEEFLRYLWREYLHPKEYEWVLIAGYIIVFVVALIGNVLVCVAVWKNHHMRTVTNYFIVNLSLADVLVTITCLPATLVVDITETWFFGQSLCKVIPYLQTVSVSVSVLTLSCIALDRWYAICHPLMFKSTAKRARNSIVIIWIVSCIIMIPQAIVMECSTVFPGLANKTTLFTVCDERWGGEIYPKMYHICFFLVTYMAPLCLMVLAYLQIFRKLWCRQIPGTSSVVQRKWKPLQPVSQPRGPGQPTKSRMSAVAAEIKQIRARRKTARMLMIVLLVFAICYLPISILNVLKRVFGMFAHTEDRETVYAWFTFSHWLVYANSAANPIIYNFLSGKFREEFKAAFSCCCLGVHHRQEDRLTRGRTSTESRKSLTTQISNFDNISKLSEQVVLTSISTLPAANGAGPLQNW
Format: cell-based
Excerpt: To obtain a cell clone stably expressing human orexin type 2 receptor, human orexin type 2 receptor cDNA was inserted into pcDNA3.1(+) plasmid vector (Invitrogen), and a plasmid DNA for expression of human orexin type 2 receptor (pcDNA3.1(+)/hOX2R) was cloned. The plasmid DNA was introduced into CHO-dhfr cell by an electroporation method, and human orexin type 2 receptor expressing clone cells were obtained by limiting dilution method by using G418 drug resistance as a selection marker.
CHO cells forcibly expressing human OX2 receptor were seeded in each well of 384 well black transparent bottom plate (BD Falcon) at 7,500 cells/well, and cultured for one day in a 5% CO2 incubator at 37° C. After removal of the medium in the cell plate, assay buffer A containing a calcium indicator (HBSS (Thermo Fisher Scientific), 20 mM HEPES (Thermo Fisher Scientific), 0.1% BSA (Sigma-Aldrich), 2.5 μg/mL Fluo-4 AM (DOJINDO Chemical), 0.08% Pluronic F127 (DOJINDO Chemical), 1.25 mM probenecid (DOJINDO Chemical)) was added at 30 μL/well. The plate was stood for 30 min in a 5% CO2 incubator at 37° C., and further stood at room temperature for 30 min. A test compound prepared by diluting with assay buffer B (HBSS, 20 mM HEPES, 0.1% BSA) was added at 10 μL/well, and the fluorescence value was measured by FDSSμCELL (Hamamatsu Photonics K.K.) every one sec for 1 min, and thereafter every two sec for […]. The activity (%) of the test compound was calculated assuming that variation in the fluorescence value when DMSO was added instead of the test compound was 0%, and variation in the fluorescence value when orexin A (human) (PEPTIDE INSTITUTE, INC.) was added at the final concentration of 10 nM was 100%.

Compound	OX2R agonist activity (3 μM, %) [%]
CN(C)C(=O)N1CC(F)(F)[C@H](NS(=O)(=O)C2CC2)[C@@H]1Cc1cccc(-c2cccc(F)c2)c1F [Example 523, (2S,3R)-3-[(cyclopropanesulfonyl)amino]-2-[(2,3′-difluoro[1,1′-biphenyl]-3-yl)methyl]-4,4-difluoro-N,N-dimethylpyrrolidine-1-carboxamide]	86
CCS(=O)(=O)N[C@@H]1[C@H](Cc2cccc(-c3cc(F)ccc3F)c2F)N(C(=O)C2CCO2)CC1(F)F (stereo partly drawn) [Example 356, N-{(2S,3R)-4,4-difluoro-1-(oxetane-2-carbonyl)-2-[(2,2′,5′-trifluoro[1,1′-biphenyl]-3-yl)methyl]pyrrolidin-3-yl}ethanesulfonamide]	97
CCS(=O)(=O)N[C@@H]1[C@H](Cc2cccc(-c3cc(F)c(F)cc3F)c2F)N(C(=O)C2CCO2)CC1(F)F (stereo partly drawn) [Example 477, N-{(2S,3R)-4,4-difluoro-1-(oxetane-2-carbonyl)-2-[(2,2′,4′,5′-tetrafluoro[1,1′-biphenyl]-3-yl)methyl]pyrrolidin-3-yl}ethanesulfonamide]	96
CCS(=O)(=O)N[C@@H]1[C@H](Cc2cccc(-c3ccc(F)c(C)c3F)c2F)N(C(=O)C2CCO2)CC1(F)F (stereo partly drawn) [Example 478, N-{(2S,3R)-4,4-difluoro-1-(oxetane-2-carbonyl)-2-[(2,2′,4′-trifluoro-3′-methyl[1,1′-biphenyl]-3-yl)methyl]pyrroldiin-3-yl}ethanesulfonamide]	103
CCS(=O)(=O)N[C@@H]1[C@H](Cc2cccc(-c3cccc(OC(F)F)c3)c2F)N(C(=O)C(C)C)CC1(F)F [Example 549, N-[(2S,3R)-2-{[3′-(difluoromethoxy)-2-fluoro[1,1′-biphenyl]-3-yl]methyl}-4,4-difluoro-1-(2-methylpropanoyl)pyrrolidin-3-yl]ethanesulfonamide]	94
CS(=O)(=O)N[C@@H]1[C@H](Cc2cccc(-c3cccc(Cl)c3)c2F)N(C(=O)C2CCO2)CC1(F)F (stereo partly drawn) [Example 259, N-[(2S,3R)-2-[(3′-chloro-2-fluoro[1,1′-biphenyl]-3-yl)methyl]-4,4-difluoro-1-(oxetane-2-carbonyl)pyrrolidin-3-yl]methanesulfonamide]	96
CCS(=O)(=O)N[C@@H]1[C@H](Cc2cccc(-c3cccc(F)c3)c2)N(C(=O)[C@H]2CCCO2)CC1(F)F [Example 88, N-{(2S,3R)-4,4-difluoro-2-[(3′-fluoro[1,1′-biphenyl]-3-yl)methyl]-1-[(2R)-oxolane-2-carbonyl]pyrrolidin-3-yl}ethanesulfonamide]	98
CCS(=O)(=O)N[C@@H]1[C@H](Cc2cccc(-c3cccc(C)c3F)c2F)N(C(=O)C2(O)CCC2)CC1(F)F [Example 276, N-[(2S,3R)-2-[(2,2′-difluoro-3′-methyl[1,1′-biphenyl]-3-yl)methyl]-4,4-difluoro-1-(1-hydroxycyclobutane-1-carbonyl)pyrrolidin-3-yl]ethanesulfonamide]	88
CCS(=O)(=O)N[C@@H]1[C@H](Cc2cccc(-c3ccccc3)c2)N(C(=O)C2CCO2)CC1(F)F (stereo partly drawn) [Example 50, N-[(2S,3R)-2-[([1,1′-biphenyl]-3-yl)methyl]-4,4-difluoro-1-(oxetane-2-carbonyl)pyrrolidin-3-yl]ethanesulfonamide]	99
Cc1cccc(-c2cccc(C[C@H]3[C@@H](NS(=O)(=O)C4CC4)C(F)(F)CN3C(=O)C3(O)CCC3)c2F)c1 [Example 430, N-[(2S,3R)-4,4-difluoro-2-[(2-fluoro-3′-methyl[1,1′-biphenyl]-3-yl)methyl]-1-(1-hydroxycyclobutane-1-carbonyl)pyrrolidin-3-yl]cyclopropanesulfonamide]	96

Continued, values first:

OX2R agonist activity (3 μM, %) [%]	Compound
99	CCS(=O)(=O)N[C@@H]1[C@H](Cc2cccc(-c3cccc(F)c3)c2F)N(C(=O)C(C)(C)O)CC1(F)F [Example 8, N-[(2S,3R)-2-[(2,3′-difluoro[1,1′-biphenyl]-3-yl)methyl]-4,4-difluoro-1-(2-hydroxy-2-methylpropanoyl)pyrrolidin-3-yl]ethanesulfonamide]
96	CS(=O)(=O)N[C@@H]1[C@H](Cc2cccc(-c3cc(F)cc(Cl)c3)c2F)N(C(=O)C2CCO2)CC1(F)F (stereo partly drawn) [Example 265, N-[(2S,3R)-2-[(3′-chloro-2,5′-difluoro[1,1′-biphenyl]-3-yl)methyl]-4,4-difluoro-1-(oxetane-2-carbonyl)pyrrolidin-3-yl]methanesulfonamide]
92	CC(C)(O)C(=O)N1C[C@H](F)[C@H](NS(C)(=O)=O)[C@@H]1Cc1cccc(-c2cc(F)cc(Cl)c2)c1F [Example 391, N-[(2S,3R,4S)-2-[(3′-chloro-2,5′-difluoro[1,1′-biphenyl]-3-yl)methyl]-4-fluoro-1-(2-hydroxy-2-methylpropanoyl)pyrrolidin-3-yl]methanesulfonamide]
99	CCS(=O)(=O)N[C@H]1[C@@H](F)CN(C(=O)C2CCO2)[C@H]1Cc1cccc(-c2cccc(C)c2)c1F (stereo partly drawn) [Example 498, N-[(2S,3R,4S)-4-fluoro-2-[(2-fluoro-3′-methyl[1,1′-biphenyl]-3-yl)methyl]-1-(oxetane-2-carbonyl)pyrrolidin-3-yl]ethanesulfonamide]
90	CCS(=O)(=O)N[C@H]1[C@@H](F)CN(C(=O)C(C)(C)O)[C@H]1Cc1cccc(-c2cc(F)cc(F)c2)c1F [Example 220, N-{(2S,3R,4S)-4-fluoro-1-(2-hydroxy-2-methylpropanoyl)-2-[(2,3′,5′-trifluoro[1,1′-biphenyl]-3-yl)methyl]pyrrolidin-3-yl}ethanesulfonamide]
99	CCS(=O)(=O)N[C@@H]1[C@H](Cc2cccc(-c3cc(F)ccc3F)c2F)N(C(=O)[C@H]2C[C@H](F)C2)CC1(F)F [Example 376, N-{(2S,3R)-4,4-difluoro-1-((1r,3S)-3-fluorocyclobutane-1-carbonyl)-2-[(2,2′,5′-trifluoro[1,1′-biphenyl]-3-yl)methyl]pyrrolidin-3-yl}ethanesulfonamide]
96	CCS(=O)(=O)N[C@H]1[C@@H](F)CN(C(=O)C2CC2)[C@H]1Cc1cccc(-c2cccc(F)c2)c1F [Example 212, N-{(2S,3R,4S)-1-(cyclopropanecarbonyl)-2-[(2,3′-difluoro[1,1′-biphenyl]-3-yl)methyl]-4-fluoropyrrolidin-3-yl}ethanesulfonamide]
85	CC(C)(O)C(=O)N1C[C@H](F)[C@H](NS(=O)(=O)C2CC2)[C@@H]1Cc1cccc(-c2cccc(F)c2)c1F [Example 369, N-[(2S,3R,4S)-2-[(2,3′-difluoro[1,1′-biphenyl]-3-yl)methyl]-4-fluoro-1-(2-hydroxy-2-methylpropanoyl)pyrrolidin-3-yl]cyclopropanesulfonamide]
94	CCS(=O)(=O)N[C@H]1[C@@H](F)CN(C(=O)N2CCC2)[C@H]1Cc1cccc(-c2cccc(F)c2)c1F [Example 211, N-{(2S,3R,4S)-1-(azetidine-1-carbonyl)-2-[(2,3′-difluoro[1,1′-biphenyl]-3-yl)methyl]-4-fluoropyrrolidin-3-yl}ethanesulfonamide]
105	CCS(=O)(=O)N[C@@H]1[C@H](Cc2cccc(-c3ccc(F)c(F)c3)c2F)N(C(=O)C2CCO2)CC1(F)F (stereo partly drawn) [Example 467, N-{(2S,3R)-4,4-difluoro-1-(oxetane-2-carbonyl)-2-[(2,3′,4′-trifluoro[1,1′-biphenyl]-3-yl)methyl]pyrrolidin-3-yl}ethanesulfonamide]
100	CCS(=O)(=O)N[C@@H]1[C@H](Cc2cccc(-c3cccc(C)c3F)c2F)N(C(=O)C(C)(C)O)CC1(F)F [Example 65, N-[(2S,3R)-2-[(2,2′-difluoro-3′-methyl[1,1′-biphenyl]-3-yl)methyl]-4,4-difluoro-1-(2-hydroxy-2-methylpropanoyl)pyrrolidin-3-yl]ethanesulfonamide]
84	CN(C)S(=O)(=O)N[C@H]1[C@@H](F)CN(C(=O)N2CCC2)[C@H]1Cc1cccc(-c2cc(F)cc(F)c2)c1F [Example 458, N′-{(2S,3R,4S)-1-(azetidine-1-carbonyl)-4-fluoro-2-[(2,3′,5′-trifluoro[1,1′-biphenyl]-3-yl)methyl]pyrrolidin-3-yl}-N,N-dimethylsulfuric diamide]
